Earlier results in patent EP2527351B1, “Lipophosphonoxins, method of their preparation and use” (priority 2011, dated 2012).

System: Mycobacterium tuberculosis strains
Conditions: multidrug-resistant strains, in vitro; cited from earlier work

caprazamycins [CPZs]
MIC: 3.13 µg/mL
